Results as given in PMC9150124, “Design of a Potent, Selective, and Brain-Penetrant Inhibitor of Wnt-Deactivating Enzyme Notum by Optimization of a Crystallographic Fragment Hit” (Journal of Medicinal Chemistry, 2022).
Read-outs that look alike come from different tables or passages of the source.

Experiments:
[1] = target: kinase named in conditions (Homo sapiens, UniProt O00329); experiment: SelectScreen kinase profiling, SSBK Adapta SP Technology; assay type: biochemical; conditions: PIK3CD/PIK3R1 (p110 delta/p85 alpha), 10 μM
Chain of kinase named in conditions (Homo sapiens, UniProt O00329) (O00329 whole entry): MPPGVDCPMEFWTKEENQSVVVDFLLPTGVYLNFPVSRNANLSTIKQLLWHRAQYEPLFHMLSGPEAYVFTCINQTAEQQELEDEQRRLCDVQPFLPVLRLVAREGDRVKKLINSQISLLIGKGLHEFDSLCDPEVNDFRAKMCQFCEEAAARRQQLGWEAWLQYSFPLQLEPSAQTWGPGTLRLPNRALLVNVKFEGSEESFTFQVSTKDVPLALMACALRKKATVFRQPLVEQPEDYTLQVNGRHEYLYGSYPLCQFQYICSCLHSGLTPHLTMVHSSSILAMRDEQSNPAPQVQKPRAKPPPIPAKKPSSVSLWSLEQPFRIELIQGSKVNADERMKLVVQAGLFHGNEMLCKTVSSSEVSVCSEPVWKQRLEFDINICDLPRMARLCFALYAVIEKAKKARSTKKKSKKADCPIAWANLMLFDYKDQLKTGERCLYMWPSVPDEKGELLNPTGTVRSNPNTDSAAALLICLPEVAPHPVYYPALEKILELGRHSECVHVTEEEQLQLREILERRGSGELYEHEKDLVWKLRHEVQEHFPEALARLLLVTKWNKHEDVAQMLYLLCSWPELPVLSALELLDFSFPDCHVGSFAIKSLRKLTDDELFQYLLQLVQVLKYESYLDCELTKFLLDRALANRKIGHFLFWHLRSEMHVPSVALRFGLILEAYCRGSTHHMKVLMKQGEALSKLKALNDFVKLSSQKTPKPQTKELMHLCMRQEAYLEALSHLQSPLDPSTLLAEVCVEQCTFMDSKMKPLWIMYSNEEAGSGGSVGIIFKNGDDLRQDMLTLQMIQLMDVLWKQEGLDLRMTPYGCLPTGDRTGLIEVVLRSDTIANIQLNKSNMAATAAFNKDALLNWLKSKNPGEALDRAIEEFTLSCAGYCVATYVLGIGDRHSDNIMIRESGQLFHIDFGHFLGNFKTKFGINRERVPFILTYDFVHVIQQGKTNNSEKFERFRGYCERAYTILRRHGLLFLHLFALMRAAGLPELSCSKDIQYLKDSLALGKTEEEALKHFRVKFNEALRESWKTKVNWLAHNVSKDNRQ
Chain of kinase named in conditions (Homo sapiens, UniProt O00329) (P27986 whole entry partner): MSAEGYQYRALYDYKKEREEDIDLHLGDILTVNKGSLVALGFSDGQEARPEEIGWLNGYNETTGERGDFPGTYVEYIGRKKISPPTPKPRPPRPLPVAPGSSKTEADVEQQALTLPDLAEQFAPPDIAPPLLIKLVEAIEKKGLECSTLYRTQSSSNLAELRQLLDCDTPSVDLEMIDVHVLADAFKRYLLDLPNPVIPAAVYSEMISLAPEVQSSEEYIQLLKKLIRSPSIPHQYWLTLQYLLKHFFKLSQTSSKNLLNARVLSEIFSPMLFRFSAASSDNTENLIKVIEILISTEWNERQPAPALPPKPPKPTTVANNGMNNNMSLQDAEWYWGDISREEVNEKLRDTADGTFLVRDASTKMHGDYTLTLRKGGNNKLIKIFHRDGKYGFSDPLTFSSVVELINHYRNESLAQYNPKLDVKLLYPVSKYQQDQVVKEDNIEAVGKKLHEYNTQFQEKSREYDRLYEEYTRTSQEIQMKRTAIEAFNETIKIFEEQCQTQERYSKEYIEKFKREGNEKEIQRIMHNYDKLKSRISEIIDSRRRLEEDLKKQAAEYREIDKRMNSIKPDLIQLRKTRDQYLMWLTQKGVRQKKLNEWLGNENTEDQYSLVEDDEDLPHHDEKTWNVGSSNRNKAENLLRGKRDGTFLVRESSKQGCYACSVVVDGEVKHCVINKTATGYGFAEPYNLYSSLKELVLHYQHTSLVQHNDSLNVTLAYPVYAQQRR

[2] = target: kinase named in conditions (Homo sapiens, UniProt O00443); experiment: as above; assay type: biochemical; conditions: PIK3C2A (PI3K-C2 alpha), 10 μM
[3] = target: kinase named in conditions (Homo sapiens, UniProt P42338); experiment: as above; assay type: biochemical; conditions: 10 μM
[4] = target: kinase named in conditions (Homo sapiens, UniProt Q14012); experiment: as above; assay type: biochemical; conditions: CAMK1 (CaMK1), 10 μM
Chain of kinase named in conditions (Homo sapiens, UniProt Q14012) (Q14012 whole entry): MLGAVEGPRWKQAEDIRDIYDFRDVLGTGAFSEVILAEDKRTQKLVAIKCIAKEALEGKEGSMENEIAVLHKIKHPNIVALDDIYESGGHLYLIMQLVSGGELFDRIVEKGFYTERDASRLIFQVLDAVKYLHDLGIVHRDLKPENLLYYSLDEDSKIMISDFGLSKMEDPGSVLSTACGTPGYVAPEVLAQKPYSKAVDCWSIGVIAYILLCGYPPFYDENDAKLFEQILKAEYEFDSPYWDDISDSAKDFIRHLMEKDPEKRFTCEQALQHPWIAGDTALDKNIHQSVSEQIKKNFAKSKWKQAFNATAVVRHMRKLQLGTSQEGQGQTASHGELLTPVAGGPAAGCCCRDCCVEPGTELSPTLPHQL

[5] = tested on: kinase named in conditions; experiment: as above; assay type: biochemical
nAChR(a4/b2) = target: T1, nAChR(a4/b2) (Homo sapiens, UniProt P17787+P43681); experiment: Safety47 nAChR(a4/b2) antagonist assay; assay type: cell-based
T1 construct: Eurofins (DiscoverX Safety47)
T1 sequence (P43681 29-627 limits assumed): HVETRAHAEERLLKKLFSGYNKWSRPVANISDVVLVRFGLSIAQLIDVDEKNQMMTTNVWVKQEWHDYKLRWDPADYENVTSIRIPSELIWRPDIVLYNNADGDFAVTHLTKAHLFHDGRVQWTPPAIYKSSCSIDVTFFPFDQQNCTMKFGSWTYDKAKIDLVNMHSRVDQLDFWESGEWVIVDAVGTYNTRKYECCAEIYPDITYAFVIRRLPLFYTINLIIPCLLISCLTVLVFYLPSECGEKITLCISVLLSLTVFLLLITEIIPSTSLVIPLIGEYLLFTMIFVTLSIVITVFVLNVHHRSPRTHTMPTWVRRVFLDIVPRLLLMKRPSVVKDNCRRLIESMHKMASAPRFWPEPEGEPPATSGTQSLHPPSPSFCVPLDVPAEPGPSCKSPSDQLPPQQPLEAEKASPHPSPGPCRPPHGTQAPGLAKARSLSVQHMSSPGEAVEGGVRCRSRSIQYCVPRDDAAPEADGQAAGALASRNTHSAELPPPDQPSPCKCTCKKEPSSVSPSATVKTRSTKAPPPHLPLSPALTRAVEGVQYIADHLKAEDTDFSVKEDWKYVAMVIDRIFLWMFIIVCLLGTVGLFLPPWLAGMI
T1 sequence (P17787 26-502): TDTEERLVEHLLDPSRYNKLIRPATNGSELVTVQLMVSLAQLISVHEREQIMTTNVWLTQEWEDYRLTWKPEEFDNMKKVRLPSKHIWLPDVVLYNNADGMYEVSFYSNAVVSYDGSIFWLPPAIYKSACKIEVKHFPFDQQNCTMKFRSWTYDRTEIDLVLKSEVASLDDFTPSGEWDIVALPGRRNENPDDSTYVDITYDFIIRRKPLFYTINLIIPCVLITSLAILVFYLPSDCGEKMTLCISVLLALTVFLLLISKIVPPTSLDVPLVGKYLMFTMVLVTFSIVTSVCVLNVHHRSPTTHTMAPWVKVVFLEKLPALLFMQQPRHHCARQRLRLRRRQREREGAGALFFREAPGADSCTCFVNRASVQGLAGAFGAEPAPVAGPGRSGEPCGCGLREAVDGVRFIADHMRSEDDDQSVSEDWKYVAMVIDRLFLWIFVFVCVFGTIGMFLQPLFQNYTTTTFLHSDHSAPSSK
Experimental: Screening for off-target pharmacology across multiple drug target classes was performed in the DiscoverX Safety47 panel as the SAFETYscan E/IC50 ELECT service by Eurofins (San Diego CA, U.S.A.). Assay information and data are presented in the Supporting Information.
Safety pharmacology studies
Screening for off-target pharmacology across multiple drug target classes was performed in the DiscoverX Safety47™ panel as the SAFETYscan E/IC50 ELECT service by eurofins (San Diego CA, U.S.A.). The assays were performed utilizing the PathHunter enzyme fragment complementation (EFC) technology, FLIPR®-based cellular screening assays, KINOMEscan kinase binding assays, and a variety of enzymatic assays (78 assays).

[6] = Stability in human liver microsomes; assay type: in vitro ADME; conditions: for half-life: human, liver microsomes, read-out: HLM Stability t1/2
[7] = Plasma protein binding, rapid equilibrium dialysis; conditions: for fraction unbound at 4 h, 2 µM: plasma
Experimental: G. Plasma protein binding (PPB):
Method: rapid equilibrium dialysis.
Test System Mouse Plasma (K2EDTA)
Test compound concentration 10 µM (mouse) or 2 µM (rat)

CYP1A2 = target: T2, CYP1A2 (Homo sapiens, UniProt P05177); experiment: CYP450 inhibition in HLM
T2 sequence (P05177 1-516): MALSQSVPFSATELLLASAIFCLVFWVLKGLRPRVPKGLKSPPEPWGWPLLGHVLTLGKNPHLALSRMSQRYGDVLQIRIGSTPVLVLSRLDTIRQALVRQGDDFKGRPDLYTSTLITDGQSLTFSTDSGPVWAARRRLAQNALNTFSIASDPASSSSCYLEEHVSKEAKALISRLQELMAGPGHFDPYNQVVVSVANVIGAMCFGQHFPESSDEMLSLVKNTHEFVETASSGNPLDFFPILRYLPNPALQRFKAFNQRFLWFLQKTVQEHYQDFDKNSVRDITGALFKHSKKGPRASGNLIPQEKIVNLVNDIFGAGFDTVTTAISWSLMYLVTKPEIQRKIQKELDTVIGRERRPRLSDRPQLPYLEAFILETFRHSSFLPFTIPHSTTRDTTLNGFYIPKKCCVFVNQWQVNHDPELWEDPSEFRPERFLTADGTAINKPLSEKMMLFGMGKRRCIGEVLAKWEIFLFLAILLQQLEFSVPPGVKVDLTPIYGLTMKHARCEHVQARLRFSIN

CYP2B6 = target: T3, CYP2B6 (Homo sapiens, UniProt P20813); experiment: CYP450 inhibition in HLM
T3 sequence (P20813 1-491): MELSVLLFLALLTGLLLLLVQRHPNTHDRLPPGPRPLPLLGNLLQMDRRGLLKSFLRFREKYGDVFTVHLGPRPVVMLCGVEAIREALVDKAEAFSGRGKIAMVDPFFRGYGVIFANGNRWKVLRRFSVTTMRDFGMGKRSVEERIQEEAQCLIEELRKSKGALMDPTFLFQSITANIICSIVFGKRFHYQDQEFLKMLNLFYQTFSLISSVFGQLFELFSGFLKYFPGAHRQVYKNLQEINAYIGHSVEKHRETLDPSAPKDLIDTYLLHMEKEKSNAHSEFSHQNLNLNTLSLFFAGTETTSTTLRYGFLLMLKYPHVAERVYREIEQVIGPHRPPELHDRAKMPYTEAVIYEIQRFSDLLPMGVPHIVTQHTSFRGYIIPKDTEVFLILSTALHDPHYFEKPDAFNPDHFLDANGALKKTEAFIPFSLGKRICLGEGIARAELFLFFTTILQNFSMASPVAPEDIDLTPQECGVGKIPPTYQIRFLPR

CYP3A4 = CYP3A4 (Homo sapiens, UniProt P08684); experiment: CYP450 inhibition in HLM
Chain of CYP3A4 (P08684 whole entry): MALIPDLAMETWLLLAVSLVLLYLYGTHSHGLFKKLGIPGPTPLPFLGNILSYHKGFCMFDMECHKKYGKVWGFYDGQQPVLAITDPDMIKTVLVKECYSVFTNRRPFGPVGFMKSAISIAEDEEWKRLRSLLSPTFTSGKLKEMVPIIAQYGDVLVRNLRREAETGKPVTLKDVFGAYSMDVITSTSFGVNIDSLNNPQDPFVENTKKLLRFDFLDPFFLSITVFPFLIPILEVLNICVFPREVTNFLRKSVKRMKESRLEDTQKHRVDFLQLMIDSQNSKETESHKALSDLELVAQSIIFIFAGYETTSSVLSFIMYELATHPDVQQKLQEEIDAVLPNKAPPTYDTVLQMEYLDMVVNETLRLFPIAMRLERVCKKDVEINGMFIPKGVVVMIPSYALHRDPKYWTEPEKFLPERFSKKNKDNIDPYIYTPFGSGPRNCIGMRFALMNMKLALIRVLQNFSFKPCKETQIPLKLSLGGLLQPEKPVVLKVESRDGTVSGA

[8] = Stability in dog liver microsomes
[9] = Metabolic stability in rat hepatocytes
[10] = Permeability using Caco-2 cell monolayer; conditions: human
Caco-2 cells = experiment: Permeability using Caco-2 cell monolayer; conditions: 2.00 μM

Work on `FC(F)(F)c1c(Cl)ccc(-n2ccnn2)c1Cl` [8l, 1-(2,4-Dichloro-3-(trifluoromethyl)phenyl)-1H-1,2,3-triazole] yielded an inhibition at 10 µM [1] of -25%, an inhibition at 10 µM [2] of -10% and an inhibition at 10 µM ([3]; PIK3CB/PIK3R1 (p110 beta/p85 alpha)) of 1%. For the same compound, the inhibition at 10 µM ([3]; PIK3CB/PIK3R2 (p110 beta/p85 beta)) was 15%, the inhibition at 10 µM [4] was 11% and the “% Inhibition mean” value ([5]; DAPK1, 10 μM) was -8%. For the same compound, the “% Inhibition mean” value ([5]; IRAK1, 10 μM) was -10%, the “% Inhibition mean” value ([5]; LRRK2, 10 μM) was -12% and the “% Inhibition mean” value ([5]; LRRK2 G2019S, 10 μM) was 1%. The “% Inhibition mean” value ([5]; LRRK2 I2020T, 10 μM) was 1%, the “% Inhibition mean” value ([5]; LRRK2 R1441C, 10 μM) was 1% and the “% Inhibition mean” value ([5]; SPHK1, 10 μM) was -8%. The “% Inhibition mean” value ([5]; SPHK2, 10 μM) was 0%, the IC50 (nAChR(a4/b2); Figure S14, read-out: nAChR(a4/b2) antagonist RC50) was 10.2 µM and the IC50 (nAChR(a4/b2); read-out: nAChR(a4/b2) IC50) was 10 µM. For the same compound, the “HLM Cli” value [6] was 1.5 μL/min/mg protein, the “Liver microsome stability Cli, HLM” value ([6]; additional study (Table 5)) was < 9.6 μL/min/mg protein and the half-life ([6]; Table S4) was 120 min. The half-life ([6]; Table S8) was > 145 min, the fraction unbound at 4 h, 2 µM ([7]; SD, rat, pH 7.4) was 0.0552 and the fraction unbound at 4 h, 2 µM ([7]; SD, rat, pH 7.4, Plasma protein binding (PPB), % bound, rat plasma) was 0.0552. The recovery at 4 h, 2 µM ([7]; SD, rat, rat plasma, pH 7.4) was 99.3%, the “Plasma protein binding (PPB), % bound” value ([7]; mouse plasma) was 95.8% and the recovery at 5 h, 10 µM ([7]; mouse, mouse plasma (K2EDTA), pH 7.4) was 89.9%. For the same compound, the “Plasma protein binding (PPB), % bound” value ([7]; rat plasma) was 94.5%, the IC50 (CYP1A2; read-out: CYP inhibition IC50, 1A2, HLM) was 960 nM and the IC50 (CYP1A2; read-out: IC50 CYP1A2/Phenacetin, (+)NADPH pre-incubation) was 963 nM. The IC50 (CYP1A2; read-out: IC50 CYP1A2/Phenacetin, (-)NADPH pre-incubation) was 964 nM, the IC50 (CYP2B6) was 3.15 µM and the IC50 (CYP2B6; read-out: CYP inhibition IC50, 2B6, HLM) was 5.2 µM. The IC50 (CYP2B6; read-out: IC50 CYP2B6/Bupropion, (+)NADPH pre-incubation) was 5.21 µM, the IC50 (CYP3A4; read-out: CYP inhibition IC50, 3A4(mid.), HLM, midazolam) was > 50 µM and the IC50 (CYP3A4; read-out: CYP inhibition IC50, 3A4(test.), HLM, testosterone) was > 50 µM. The IC50 (CYP3A4; read-out: IC50 CYP3A4/Midazolam, (+)NADPH pre-incubation) was > 50 µM, the IC50 (CYP3A4; read-out: IC50 CYP3A4/Midazolam, (-)NADPH pre-incubation) was > 50 µM and the IC50 (CYP3A4; read-out: IC50 CYP3A4/Testosterone, (+)NADPH pre-incubation) was > 50 µM. The IC50 (CYP3A4; read-out: IC50 CYP3A4/Testosterone, (-)NADPH pre-incubation) was > 50 µM, the “Liver microsome stability Cli, DLM” value [8] was 10.8 μL/min/mg protein and the half-life ([8]; dog, liver microsomes) was 128 min. The half-life [9] was 167 min, the hepatocyte CLint [9] was 8.3 µL/min/1e6 cells and the recovery at 2 h, 2 µM ([10]; Caco-2, pH 7.4, Caco-2 A to B % Recovery) was 89.1%. It also gave a Papp at 2 h, 2 μM ([10]; Caco-2, pH 7.4, Caco-2 AB Papp, apical to basal) of 49.4 ×10⁻⁶ cm/s, a recovery at 2 h, 2 µM ([10]; Caco-2, pH 7.4, Caco-2 B to A % Recovery) of 102% and a Papp at 2 h, 2 μM ([10]; Caco-2, pH 7.4, Caco-2 BA Papp, basal to apical) of 30.3 ×10⁻⁶ cm/s. For the same compound, the “Caco-2 AB Papp” value (Caco-2 cells; apical to basal) was 49 10-6 cm/sec and the “Caco-2 BA Papp” value (Caco-2 cells; basal to apical) was 30 10-6 cm/sec.
